Patent publication US20260176289A1, “SMALL MOLECULE INHIBITORS OF KRAS PROTEINS” (Merck Sharp & Dohme LLC, priority 2022, published 2026)

What was measured:
AsPC-1 cells = assay: Cellular phospho-ERK assay, AsPC-1 cells (homozygous KRAS-G12D); type: cell-based; conditions: Homo sapiens, ASPC1, 2 h, KRAS-G12D, 2 hours, read-out: AsPC1 pERK IC50
Description: Procedure for Cellular Phospho-ERK Assay in KRAS Wild Type and Mutant (G12D, G12V) Cell Lines
MKN-1 cells (JCRB JCRB0252) containing amplified wild-type KRAS, were cultured in growth medium that contains RPMI 1640-GlutaMAX™-I (ThermoFisher Scientific 61870) containing 10% heat inactivated fetal bovine serum (ThermoFisher Scientific 10091148), 1 mM sodium pyruvate and 10 mM HEPES. PANC08.13 cells (ATCC® CRL-2551™), containing homozygous KRAS-G12D activating mutation, were cultured in growth medium made of RPMI1640-GlutaMAX™-I (ThermoFisher Scientific 61870) containing 15% heat inactivated fetal bovine serum (ThermoFisher Scientific 10091148)). AsPC-1 cells (ATCC® CRL-1682™), containing homozygous KRAS-G12D activating mutation, were cultured in T150 flask in growth medium (RPMI medium 1640-GlutaMAX™-I (ThermoFisher Scientific 61870) containing 10% fetal bovine serum (ThermoFisher Scientific 10091148)). SW620 cells (ATCC® […]), containing homozygous KRAS-G12V activating mutation, were cultured in growth medium that contains RPMI 1640-GlutaMAX™-I (ThermoFisher Scientific 61870) containing 10% heat inactivated fetal bovine serum (ThermoFisher Scientific 10091148).
Cells for the assay were harvested in growth medium after TrypLE (ThermoFisher scientific 12604021) digestion and were seeded in a 384-well collagen coated cell culture plate (Corning 356702) at a density of 10,000-15,000 cells/20 μL/well, and incubated at 37° C., 5% CO2 overnight. The compound (with 10 mM stock concentration) dose-response titrations were prepared [30 μM final ERK detection assay concentration and 1:3 dilutions, 10-point dose response] and appropriate amounts (270 nL) of test compounds were dispensed in a 384-well intermediate plate using an Echo 550 liquid handler. 30 μL/well of RPMI medium 1640-GlutaMAX™—I was added to the intermediate plate and the contents of the intermediate plate (10 μL/well) were then transferred to the 384-well collagen coated cell culture plate, which was incubated at 37° C., 5% CO2 for 2 hours. After removal of medium from the collagen coated cell culture plate, cells were lysed in lysis buffer from Alpha SureFire® Ultra™ Multiplex p-ERK and total ERK assay kit (PerkinElmer MPSU-PTERK) containing Halt™ Protease and Phosphatase inhibitor cocktail (ThermoFisher Scientific 78446) at room temperature with constant shaking at 300 rpm for 30 minutes. The cell lysates were then transferred to an OptiPlate-384 plate (PerkinElmer 6005620), and the phosphorylation of ERK (p-ERK) and total ERK levels were detected by Alpha SureFire® Ultra™ Multiplex p-EEK kit and total ERK assay kit (PerkinElmer MPSU-PTERK) following the manufacturer's protocol. Assay plates were read on a En Vision Multimode Plate Reader (PerkinElmer), and the ratio of p-ERK vs. total ERK in each well was used as the final readout. Dose response curves were analyzed using a 4-parameter logistic model to calculate IC50 values using Spotfire software.

KRAS-G12V = KRAS-G12V (Homo sapiens, UniProt P01116, G12V); assay: SOS-catalyzed nucleotide exchange assay (Procedure A, TR-FRET), KRAS-G12V; type: biochemical; conditions: nucleotide exchange, read-out: KRAS G12V GNE IC50
From the text: (§1) Procedure for SOS-Catalyzed Nucleotide Exchange Assay for KRAS-WT, G12C/D/V, G13D, HRAS, and NRAS (Procedure A)
(§2) Recombinant KRAS-G12C protein used in this assay has an additional triple mutation (C51S/C80L/C118S). Whereas KRAS-WT, G12D/V, G13D, HRAS and NRAS are in context of their WT protein sequence background. Specifically, the SOS-catalyzed nucleotide exchange assay utilizes a preformed TR-FRET complex containing a specific biotinylated RAS protein (KRAS-WT, G12C/V/D, G13D, HRAS, NRAS; described above) with Bodipy-GDP, and Terbium-streptavidin. Compounds are preincubated with this complex for 60 minutes. Subsequently, recombinant human SOS protein and unlabeled GTP are added to initiate the exchange reaction. Small molecule inhibitors stabilize the Bodipy-GDP complex whereas the untreated protein rapidly exchanges Bodipy-GDP for unlabeled GTP resulting in reduced TR-FRET signal.
(§3) To assemble the preformed TR-FRET complexes, each biotinylated RAS protein is diluted to 2 μM in an EDTA Buffer (20 mM HEPES pH 7.5, 50 mM sodium chloride, 10 mM EDTA, and 0.01% Tween) and incubated at room temperature for one hour. This mixture is then further diluted to 90 nM in an Assay Buffer (20 mM HEPES pH 7.5, 150 mM sodium chloride, 10 mM magnesium chloride, and 0.005% Tween) containing 15 nM of Terbium-Streptavidin (Invitrogen, catalog #PV3577) and 900 nM of Bodipy-GDP (Invitrogen, catalog #G22360) and incubated at room temperature for six hours. It should be noted that this preformed TR-FRET complex for each of the RAS protein were made ahead of time, aliquoted and stored at −80° C. until the day of the experiment.
(§4) Each test compound (10 mM stock in DMSO) is diluted in DMSO to make a final-10-point, 3-fold dilution and is acoustically dispensed into a 384-well assay plate (Corning, catalog #3820) using an Echo 550 (Labcyte). Each well of the assay plate receives 3 μL of a specific 3×RAS preformed TR-FRET complex and 3 μL of Assay Buffer and is incubated at room temperature for 60 minutes (preincubation time). Each well then receives 3 μL of 3×recombinant human SOS protein and GTP (Sigma, G8877) in Assay Buffer and is incubated at room temperature for 30 minutes (G13D), 60 minutes (KRAS WT/G12C/D, H/NRAS) or 90 minutes for G12V. The final reaction in each well of 9 μL consists of 3 mM GTP, specific Ras and SOS proteins in the following concentrations: KRAS-G12C/SOS=3 nM/40 nM, KRAS-WT and G12D/SOS=1 nM/40 nM, KRAS-G12V/SOS=1.25 nM/160 nM. KRAS-G13D/SOS=1.25 nM/0 nM, HRAS and NRAS=1.25 nM/40 nM.
(§5) The time-resolved fluorescence resonance energy transfer (TR-FRET) signal is measured on an Envision (PerkinElmer) plate reader: Excitation filter=340 nm; emission 1=495 nm; emission2=520 nm; dichroic mirror=D400/D505; delay time=[…]. The signal of each well is determined as the ratio of the emission at 520 nm to that at 495 nm. Percent effect of each well is determined after normalization to control wells containing DMSO (no effect) or a saturating concentration of inhibitor (max effect). The apparent effect as a function of compound concentration is fit to a four-parameter logistic equation.

KRAS-WT = KRAS-WT (Homo sapiens, UniProt P01116); assay: SOS-catalyzed nucleotide exchange assay (Procedure A, TR-FRET), KRAS-WT; type: biochemical; conditions: nucleotide exchange, read-out: KRAS WT GNE IC50
From the text: as §1, §2, §3, §4, §5

KRAS-G12D = KRAS-G12D (Homo sapiens, UniProt P01116, G12D); assay: SOS-catalyzed nucleotide exchange assay (Procedure A, TR-FRET), KRAS-G12D; type: biochemical; conditions: nucleotide exchange, read-out: KRAS G12D GNE IC50
From the text: as §1, §2, §3, §4, §5

Sequence of KRAS-G12D (P01116 with tags, fused parts or gaps isoform P01116-2 G12D): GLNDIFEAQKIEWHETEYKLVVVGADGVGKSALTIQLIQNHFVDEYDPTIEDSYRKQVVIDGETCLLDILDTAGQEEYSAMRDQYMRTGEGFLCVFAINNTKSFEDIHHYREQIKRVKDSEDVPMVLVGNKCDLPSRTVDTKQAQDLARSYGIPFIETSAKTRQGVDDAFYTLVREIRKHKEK
Sequence of KRAS-WT (P01116 with tags, fused parts or gaps isoform P01116-2): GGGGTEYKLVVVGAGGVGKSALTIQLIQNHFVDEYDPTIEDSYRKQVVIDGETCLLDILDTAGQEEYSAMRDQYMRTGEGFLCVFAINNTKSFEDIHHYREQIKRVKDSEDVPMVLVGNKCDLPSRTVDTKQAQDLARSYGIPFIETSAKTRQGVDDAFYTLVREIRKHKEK
Sequence of KRAS-G12V (P01116 with tags, fused parts or gaps isoform P01116-2 G12V): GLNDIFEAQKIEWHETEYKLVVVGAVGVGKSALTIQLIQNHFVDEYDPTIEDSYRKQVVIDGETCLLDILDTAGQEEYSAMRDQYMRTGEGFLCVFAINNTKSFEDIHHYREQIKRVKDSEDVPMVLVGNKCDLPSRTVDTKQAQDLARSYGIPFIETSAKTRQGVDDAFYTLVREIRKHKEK

IC50 (AsPC-1 cells) [nM] | IC50 (KRAS-G12V) [nM] | IC50 (KRAS-WT) [nM] | IC50 (KRAS-G12D) [nM] | SMILES
730 | 196 | 436 | 158 | CNc1cc2c(sc3nc(OC[C@@]45CCCN4C[C@H](F)C5)nc(N4CCOC[C@@](C)(O)C4)c32)c(-c2c(C(F)(F)F)c(C)cc3[nH]ncc23)n1 [Ex-30, (6S)-4-(2-(((2R,7aS)-2-fluorotetrahydro-1H-pyrrolizin-7a(5H)-yl)methoxy)-8-(6-methyl-5-(trifluoromethyl)-1H-indazol-4-yl)-6-(methylamino)pyrido[4′,3′:4,5]thieno[2,3-d]pyrimidin-4-yl)-6-methyl-1,4-oxazepan-6-ol]
1310 | 219 | 571 | 305 | Cc1cc2[nH]ncc2c(-c2nc(C#N)cc3c2sc2nc(OC[C@@]45CCCN4C[C@H](F)C5)nc(N4CCOC[C@@](C)(O)C4)c23)c1C(F)(F)F [Ex-31, 2-(((2R,7aS)-2-fluorotetrahydro-1H-pyrrolizin-7a(5H)-yl)methoxy)-4-((S)-6-hydroxy-6-methyl-1,4-oxazepan-4-yl)-8-(6-methyl-5-(trifluoromethyl)-1H-indazol-4-yl)pyrido[4′,3′:4,5]thieno[2,3-d]pyrimidine-6-carbonitrile]
635 | 166 | 260 | 121 | Cc1cc2[nH]ncc2c(-c2nccc3c2sc2nc(OC[C@@]45CCCN4C[C@H](F)C5)nc(N4CCOC[C@@](C)(O)C4)c23)c1C(C)(F)F [Ex-41, (6S)-4-(8-(5-(1,1-difluoroethyl)-6-methyl-1H-indazol-4-yl)-2-(((2R,7aS)-2-fluorotetrahydro-1H-pyrrolizin-7a(5H)-yl)methoxy)pyrido[4′,3′:4,5]thi-eno[2,3-d]pyrimidin-4-yl)-6-methyl-1,4-oxazepan-6-ol]
1380 | 144 | 286 | 135 | C[C@@]1(O)COCCN(c2nc(OC[C@@]34CCCN3C[C@H](F)C4)nc3sc4c(-c5c(C67CC(C6)C7)ccc6[nH]ncc56)nccc4c23)C1 [Ex-42, (6S)-4-(8-(5-(bicyclo[1.1.1]pentan-1-yl)-1H-indazol-4-yl)-2-(((2R,7aS)-2-fluorotetrahydro-1H-pyrrolizin-7a(5H)-yl)methoxy)pyrido[4′,3′:4,5]thi-eno[2,3-d]pyrimidin-4-yl)-6-methyl-1,4-oxazepan-6-ol]
1110 | 153 | 374 | 167 | Cc1cc2[nH]ncc2c(-c2nccc3c2sc2nc(OC[C@@]45CCCN4C[C@H](F)C5)nc(N4CCOC[C@@](C)(O)C4)c23)c1SC(F)(F)F [Ex-45, (6S)-4-(2-(((2R,7aS)-2-fluorotetrahydro-1H-pyrrolizin-7a(5H)-yl)methoxy)-8-(6-methyl-5-((trifluoromethyl)thio)-1H-indazol-4-yl)pyrido[4′,3′:4,5]thieno [2,3-d]pyrimidin-4-yl)-6-methyl-1,4-oxazepan-6-ol]
934 | 157 | 166 | 72.4 | Cn1ccc2cc3[nH]ncc3c(-c3nccc4c3sc3nc(OC[C@@]56CCCN5C[C@H](F)C6)nc(N5CCOC[C@@](C)(O)C5)c34)c21 [Ex-46]
1930 | 59.3 | 74.1 | 39.6 | COC(=O)c1cc2[nH]ncc2c(-c2nccc3c2sc2nc(OC[C@@]45CCCN4C[C@H](F)C5)nc(N4CCOC[C@@](C)(O)C4)c23)c1C1CC1 [Ex-49, Methyl 5-cyclopropyl-4-(2-(((2R,7aS)-2-fluorotetrahydro-1H-pyrrolizin-7a(5H)-yl)methoxy)-4-((S)-6-hydroxy-6-methyl-1,4-oxazepan-4-yl)pyrido[4′,3′:4,5]thieno [2,3-d]pyrimidin-8-yl)-1H-indazole-6-carboxylate]
3960 | 291 | 326 | 243 | COCc1cc2[nH]ncc2c(-c2nccc3c2sc2nc(OC[C@@]45CCCN4C[C@H](F)C5)nc(N4CCOC[C@@](C)(O)C4)c23)c1C1CC1 [Ex-50, (6S)-4-(8-(5-cyclopropyl-6-(methoxymethyl)-1H-indazol-4-yl)-2-(((2R,7aS)-2-fluorotetrahydro-1H-pyrrolizin-7a(5H)-yl)methoxy)pyrido[4′,3′:4,5]thi-eno[2,3-d]pyrimidin-4-yl)-6-methyl-1,4-oxazepan-6-ol]
1410 | 140 | 234 | 115 | C[C@@]1(O)COCCN(c2nc(OC[C@@]34CCCN3C[C@H](F)C4)nc3sc4c(-c5c(C6CC6)c(C#N)cc6[nH]ncc56)nccc4c23)C1 [Ex-51, 5-cyclopropy1-4-(2-(((2R,7aS)-2-fluorotetrahydro-1H-pyrrolizin-7a(5H)-yl)methoxy)-4-((S)-6-hydroxy-6-methyl-1,4-oxazepan-4-yl)pyrido[4′,3′:4,5]thieno [2,3-d]pyrimidin-8-yl)-1H-indazole-6-carbonitrile]
465 | 46.7 | 91.2 | 26.4 | C[C@@]1(O)COCCN(c2nc(OC[C@@]34CCCN3C[C@H](F)C4)nc3sc4c(-c5c(C6(F)CC6)c(F)cc6[nH]ncc56)nccc4c23)C1 [Ex-53, (6S)-4-(8-(6-fluoro-5-(1-fluorocyclopropyl)-1H-indazol-4-yl)-2-(((2R,7aS)-2-fluorotetrahydro-1H-pyrrolizin-7a(5H)-yl)methoxy)pyrido[4′,3′:4,5]thi-eno[2,3-d]pyrimidin-4-yl)-6-methyl-1,4-oxazepan-6-ol]
